What was measured:
androgen receiver = biological target: T1, androgen receiver (Rattus norvegicus, UniProt P15207); assay: Affinity for the androgen receiver (Schilling and Liao method), inhibition of testosterone fixation; assay type: binding
T1 sequence (P15207 1-902): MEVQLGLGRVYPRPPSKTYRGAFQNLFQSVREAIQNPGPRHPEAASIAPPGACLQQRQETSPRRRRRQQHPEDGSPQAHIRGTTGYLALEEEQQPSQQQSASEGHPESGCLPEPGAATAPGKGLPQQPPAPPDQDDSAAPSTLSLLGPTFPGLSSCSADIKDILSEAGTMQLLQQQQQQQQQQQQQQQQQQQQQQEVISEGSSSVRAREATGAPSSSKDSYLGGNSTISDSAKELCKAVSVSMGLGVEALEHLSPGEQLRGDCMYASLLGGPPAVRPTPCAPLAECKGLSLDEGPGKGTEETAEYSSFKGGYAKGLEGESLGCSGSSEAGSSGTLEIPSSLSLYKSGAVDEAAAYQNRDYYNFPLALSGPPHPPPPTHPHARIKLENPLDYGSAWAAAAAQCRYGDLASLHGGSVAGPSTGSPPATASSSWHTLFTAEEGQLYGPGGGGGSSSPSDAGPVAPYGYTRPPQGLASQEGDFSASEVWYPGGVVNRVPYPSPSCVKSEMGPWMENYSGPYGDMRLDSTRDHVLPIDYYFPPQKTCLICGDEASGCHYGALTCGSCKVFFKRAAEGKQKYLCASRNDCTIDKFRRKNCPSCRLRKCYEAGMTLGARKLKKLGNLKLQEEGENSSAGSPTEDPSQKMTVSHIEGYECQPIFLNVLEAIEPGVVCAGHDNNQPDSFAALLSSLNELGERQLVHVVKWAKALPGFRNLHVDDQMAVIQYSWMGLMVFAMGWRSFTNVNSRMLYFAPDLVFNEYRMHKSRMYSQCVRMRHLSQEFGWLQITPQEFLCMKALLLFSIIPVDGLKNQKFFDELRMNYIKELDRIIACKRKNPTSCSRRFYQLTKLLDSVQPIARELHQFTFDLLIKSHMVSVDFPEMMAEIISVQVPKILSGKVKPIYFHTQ
Procedure: Measuring the affinity of the 4-(5-methyl-2,4-dioxo-5-trifluoromethyl)-oxazolidin-3-yp)-2-trifluoromethylbenzonitrile for the androgen receiver.
These measurements of receiving affinity for the androgen receiver are executed according to the Schilling and Liao method, described in "The Prostate", 1984, 5.p. 581-588.
The compound is tested at several concentrations. During the experiment, the reference molecule(mibolerone) is tested at the same time at 8 concentrations in order to validate the experiment.
The results are expressed in % of inhibition of the fixation of the testosterone on its receiver. The internal reference (mibolerone) inhibits up to 50% of this fixation at a concentration of 4.3 nM.

thoracic aorta rings = assay: "Potassic canal opener" type activity: in vitro relaxing power on thoracic aorta rings contracted by KCl 20 mM; assay type: cell-based
Procedure: Measurement of the "potassic canal opener" type activity of the 4-(5-methyl-2,4-dioxo-5-trifluoromethyl)-oxazolidin-3-yl)-2-trifluoromethylbenzonitrile by measuring in vitro the relaxing power of the molecules of thoracic aorta rings.
The experiments are carried out according to the Newgreen et al (Br. J. Pharmacol., 100, 1990, p. 605-613), Bray et al (Arch. Pharmacol., 344, 1991, p. 351-359) and Wickerden et al (Br. J. Pharmacol., 103, 1991, 1148-1152) methods.
After placing the tissues in the isolated organ tanks, they (smooth aortic muscles) are subjected to an initial tension of 2 g.
After a period of equilibration, the tissues are exposed to a potassium chloride solution (KCl, at 20 mM) in order to obtain a sustained contractile response. After stabilization of this contractile response, the relaxing activity (of the potassic canal opener type) of the molecules to be tested is evaluated in response doses.
During the experiment, two reference molecules are used: cromakalim and Minoxidil.
Results expressed in % of inhibition of the contraction provoked by the KCl at 20 mM.

SMILES | IC50 (androgen receiver) [nM] | % of inhibition of the contraction provoked by the KCl at 20 mM (thoracic aorta rings; compound at 0.1 μM) [%] | % of inhibition of the contraction provoked by the KCl at 20 mM (thoracic aorta rings; compound at 1 μM) [%] | % of inhibition of the contraction provoked by the KCl at 20 mM (thoracic aorta rings; compound at 10 μM) [%] | inhibition at 0.1 µM (androgen receiver; compound at 0.1 μM, read-out: % of inhibition of the fixation of the testosterone on its receiver) [%] | inhibition at 1 µM (androgen receiver; compound at 1 μM, read-out: % of inhibition of the fixation of the testosterone on its receiver) [%] | inhibition at 10 µM (androgen receiver; compound at 10 μM, read-out: % of inhibition of the fixation of the testosterone on its receiver) [%] | activity profile (potassic canal opener / anti-androgen) (thoracic aorta rings; conclusion drawn from the results of Examples 2 and 3)
C[C@@H]1CC2=CC(=O)CC[C@@H]2[C@H]2CC[C@@]3(C)[C@@H](CC[C@]3(C)O)[C@@H]21 [mibolerone] | 4.3 | – | – | – | – | – | – | –
Nc1cc(N2CCCCC2)nc(N)[n+]1[O-] [Minoxidil, 3-oxide pyrimidine 6-piperidino 2,4-diamino] | – | 25 | 65 | 95 | – | – | – | –
CC1(C(F)(F)F)OC(=O)N(c2ccc(C#N)c(C(F)(F)F)c2)C1=O (centres unmarked) [4-(5-methyl-2,4-dioxo-5-trifluoromethyl)-oxazolidin-3-yl)-2-trifluoromethylbenzonitrile] | – | 12 | 69 | 95 | 2 | 17 | 56 | mixed activity, with a preferred activity for the K* Agonist facet
CC1(C)Oc2ccc(C#N)cc2C(N2CCCC2=O)C1O (centres unmarked) [Cromakalim, cromakalim] | – | 46 | 86 | 100 | – | – | – | –

From patent US6057351A, “Compounds of the 3-aryl 2,4 dioxo oxazolidine family and use thereof in cosmetic and pharmaceuticals” (Societe L'Oreal S.A., priority 1996, dated 2000)
